Common to all, as to type: cell-based
In one assay the target is T1, hGIPR (Homo sapiens, UniProt P48546).
T1 construct: expressed in transfected cells
T1 sequence (P48546 22-466): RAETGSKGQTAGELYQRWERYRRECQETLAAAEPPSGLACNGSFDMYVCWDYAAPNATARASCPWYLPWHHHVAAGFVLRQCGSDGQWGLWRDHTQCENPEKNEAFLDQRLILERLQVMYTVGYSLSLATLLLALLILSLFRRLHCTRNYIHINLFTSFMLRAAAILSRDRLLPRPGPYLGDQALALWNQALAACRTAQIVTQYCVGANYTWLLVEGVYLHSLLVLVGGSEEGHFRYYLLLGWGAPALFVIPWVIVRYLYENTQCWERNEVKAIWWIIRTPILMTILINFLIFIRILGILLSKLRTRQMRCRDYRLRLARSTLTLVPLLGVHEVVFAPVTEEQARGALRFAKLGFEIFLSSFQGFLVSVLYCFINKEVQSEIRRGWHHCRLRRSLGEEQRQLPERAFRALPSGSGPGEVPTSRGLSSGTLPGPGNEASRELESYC
As to the kind of experiment: Functional cAMP formation (HTRF) in HEK-293 clonal cells expressing hGIPR, 0.1% bovine casein, without or with 1.0% human serum albumin. Conditions: for EC50: geometric mean. In outline: (§1)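 Cells were stimulated with peptide for 30 min at 37° C, then intracellular cAMP was measured by competitive HTRF (665/620 nm ratio) and converted to nM using a cAMP standard curve. Relative EC50 and Emax came from four-parameter logistic fits of percent maximal response against peptide concentration.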

Another assay has as its target hGLP-1R (Homo sapiens, UniProt P43220). In words: Functional cAMP formation (HTRF) in HEK-293 clonal cells expressing hGLP-1R, 0.1% bovine casein, without or with 1.0% human serum albumin. On the set-up: expressed in transfected cells. The note with it: 37° C.; for EC50: cAMP. Put shortly: as §1
For orientation: Cyclic AMP is a second messenger, typically raised through Gs and lowered through Gi signalling.

The next assay has as its target T2, hGCGR (Homo sapiens, UniProt P47871).
T2 construct: expressed in transfected cells
As to the kind of experiment: Functional cAMP formation (HTRF) in HEK-293 clonal cells expressing hGCGR, 0.1% bovine casein, without or with 1.0% human serum albumin. In outline: as §1

Where [1] appears, read: cAMP, 37° C., 0.1% bovine casein (no human serum albumin), read-out: hGIPR EC50, nM (SEM, n).
Where [2] appears, read: 0.1% bovine casein (no human serum albumin), geometric mean, read-out: hGLP-1R EC50, nM (SEM, n).
Where [3] appears, read: cAMP, 37° C., 0.1% bovine casein (no human serum albumin), geometric mean, read-out: hGCGR EC50, nM (SEM, n).

Like-named read-outs stand apart in the source and are kept apart here. Some results are limits rather than exact numbers.

Chain of hGLP-1R (P43220 24-463): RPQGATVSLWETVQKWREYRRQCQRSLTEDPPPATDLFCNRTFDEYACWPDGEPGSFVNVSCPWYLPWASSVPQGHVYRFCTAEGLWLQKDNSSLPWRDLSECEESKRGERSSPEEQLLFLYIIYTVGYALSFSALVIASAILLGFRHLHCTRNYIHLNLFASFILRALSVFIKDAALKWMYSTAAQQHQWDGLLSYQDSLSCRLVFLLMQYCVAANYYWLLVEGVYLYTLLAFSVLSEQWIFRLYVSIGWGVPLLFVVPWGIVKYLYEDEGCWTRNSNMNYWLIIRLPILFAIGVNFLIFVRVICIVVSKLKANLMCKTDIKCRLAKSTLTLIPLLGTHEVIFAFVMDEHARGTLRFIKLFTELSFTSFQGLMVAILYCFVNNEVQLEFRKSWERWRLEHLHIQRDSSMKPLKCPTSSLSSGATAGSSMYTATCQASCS
T2 sequence (P47871 26-477): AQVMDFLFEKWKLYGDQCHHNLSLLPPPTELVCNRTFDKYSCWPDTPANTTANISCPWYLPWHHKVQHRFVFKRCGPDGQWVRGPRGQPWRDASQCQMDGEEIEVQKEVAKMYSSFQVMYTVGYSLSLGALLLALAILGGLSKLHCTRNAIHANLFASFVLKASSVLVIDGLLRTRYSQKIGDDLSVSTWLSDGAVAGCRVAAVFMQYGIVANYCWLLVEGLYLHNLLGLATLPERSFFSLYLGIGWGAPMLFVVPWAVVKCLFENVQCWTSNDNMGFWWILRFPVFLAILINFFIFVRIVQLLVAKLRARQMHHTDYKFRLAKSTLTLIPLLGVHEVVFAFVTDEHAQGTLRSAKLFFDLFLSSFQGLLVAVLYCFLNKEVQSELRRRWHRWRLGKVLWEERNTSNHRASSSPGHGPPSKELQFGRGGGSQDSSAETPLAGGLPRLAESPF

What is called Emax is the greatest response seen or fitted, relative to the assay's reference. As usually defined, the EC50 is the midpoint of the concentration-response curve. Regarding `CC[C@H](C)[C@H](NC(=O)[C@H](CC(C)C)NC(=O)[C@](C)(Cc1ccc(O)cc1)NC(=O)[C@@H](CCC(=O)O)NC(=O)[C@@H](NC(=O)[C@H](Cc1ccccc1)NC(=O)[C@H](CCC(=O)O)NC(=O)C(C)(C)NC(=O)[C@H](CCC(N)=O)NC(=O)[C@H](C)NC(=O)[C@H](CCCCNC(=O)COCCOCCNC(=O)CC[C@H](NC(=O)CCCCCCCCCOc1ccc(C(=O)O)cc1)C(=O)O)NC(=O)[C@H](CCCN)NC(=O)[C@H](CC(=O)O)NC(=O)[C@H](CC(C)C)NC(=O)[C@](C)(CC(C)C)NC(=O)[C@@H](NC(=O)C(C)(C)NC(=O)[C@H](Cc1ccc(O)cc1)NC(=O)[C@H](CC(=O)O)NC(=O)[C@H](CO)NC(=O)[C@@H](NC(=O)[C@](C)(Cc1ccccc1F)NC(=O)[C@@H](NC(=O)CNC(=O)[C@H](CCC(=O)O)NC(=O)C(C)(C)NC(=O)[C@@H](N)Cc1ccc(O)cc1)[C@@H](C)O)[C@@H](C)O)[C@@H](C)CC)[C@@H](C)CC)C(=O)N[C@@H](CCC(=O)O)C(=O)NCC(=O)NCC(=O)N1CCC[C@H]1C(=O)N[C@@H](CO)C(=O)N[C@@H](CO)C(=O)NCC(=O)N[C@@H](C)C(=O)N1CCC[C@H]1C(=O)N1CCC[C@H]1C(=O)N1CCC[C@H]1C(=O)N[C@@H](CO)C(=O)N[C@@H](CCCCNC(=O)COCCOCCNC(=O)CC[C@H](NC(=O)CCCCCCCCCOc1ccc(C(=O)O)cc1)C(=O)O)C(N)=O` [Example 374], the maximal response (Emax) is 88.8% at hGIPR (HEK293, read-out: hGIPR Emax, % ± SEM, cAMP, 37° C., 0.1% bovine casein and 1.0% human serum albumin, percent of maximal response to GIP(1-42)NH2); 96.2% at hGIPR (HEK293, read-out: hGIPR Emax, % ± SEM, cAMP, 37° C., 0.1% bovine casein, percent of maximal response to GIP(1-42)NH2, arithmetic mean). The EC50 on hGIPR (hGIPR EC50, nM (SEM, n), cAMP, 37° C., 0.1% bovine casein (no human serum albumin)) was 0.0135 nM; at hGLP-1R (hGLP-1R EC50, nM (SEM, n), 0.1% bovine casein (no human serum albumin), geometric mean), 0.269 nM; at hGCGR (hGCGR EC50, nM (SEM, n), cAMP, 37° C., 0.1% bovine casein (no human serum albumin), geometric mean) it was > 9950 nM; on hGCGR (hGCGR EC50, nM (SEM, n), cAMP, 37° C., 0.1% bovine casein and 1.0% human serum albumin, geometric mean (SEM, n)) it was > 9950 nM.

For the compound `CC[C@H](C)[C@H](NC(=O)[C@H](CC(C)C)NC(=O)[C@](C)(Cc1ccc(O)cc1)NC(=O)[C@H](CCCCNC(=O)[C@@H](N)CCCCNC(=O)[C@@H](N)CCCCNC(=O)CC[C@H](NC(=O)CCCCCCCCCCCCC(=O)O)C(=O)O)NC(=O)[C@@H](NC(=O)[C@H](Cc1ccccc1)NC(=O)[C@H](CCC(=O)O)NC(=O)C(C)(C)NC(=O)[C@H](CCC(N)=O)NC(=O)[C@H](C)NC(=O)[C@H](CCCCNC(=O)[C@@H](N)CCCCNC(=O)[C@@H](N)CCCCNC(=O)CC[C@H](NC(=O)CCCCCCCCCCCCC(=O)O)C(=O)O)NC(=O)[C@H](CCCN)NC(=O)[C@H](CC(=O)O)NC(=O)[C@H](CC(C)C)NC(=O)[C@](C)(CC(C)C)NC(=O)[C@@H](NC(=O)C(C)(C)NC(=O)[C@@H](NC(=O)[C@H](CC(=O)O)NC(=O)[C@H](CO)NC(=O)[C@@H](NC(=O)[C@](C)(Cc1ccccc1F)NC(=O)[C@@H](NC(=O)CNC(=O)[C@H](CCC(=O)O)NC(=O)C(C)(C)NC(=O)[C@@H](N)Cc1ccc(O)cc1)[C@@H](C)O)[C@@H](C)O)C(C)C)[C@@H](C)CC)[C@@H](C)CC)C(=O)N[C@@H](CCC(=O)O)C(=O)NCC(=O)NCC(=O)N1CCC[C@H]1C(=O)N[C@@H](CO)C(=O)N[C@@H](CO)C(=O)NCC(=O)N[C@@H](C)C(=O)N1CCC[C@H]1C(=O)N1CCC[C@H]1C(=O)N1CCC[C@H]1C(=O)N[C@@H](CO)C(N)=O` [Example 168], the Emax turned out to be 93% at hGIPR (HEK293, read-out: hGIPR Emax, % ± SEM, percent of maximal response to GIP(1-42)NH2, 37° C., 0.1% bovine casein, arithmetic mean) and 93.3% at hGLP-1R (HEK293, read-out: hGLP-1R Emax, % ± SEM, percent of maximal response to GLP-1(7-36)NH2, 0.1% bovine casein, arithmetic mean). Moreover, the EC50 at hGCGR (hGCGR EC50, nM (SEM, n), cAMP, incubated at 37° C., 0.1% bovine casein (no human serum albumin), geometric mean) was > 9950 nM.

With `CC[C@H](C)[C@H](NC(=O)[C@H](CCCN)NC(=O)[C@H](CC(=O)O)NC(=O)[C@H](CC(C)C)NC(=O)[C@](C)(CC(C)C)NC(=O)[C@@H](NC(=O)C(C)(C)NC(=O)[C@@H](NC(=O)[C@H](CC(=O)O)NC(=O)[C@H](CO)NC(=O)[C@@H](NC(=O)[C@](C)(Cc1ccccc1F)NC(=O)[C@@H](NC(=O)CNC(=O)[C@H](CCC(=O)O)NC(=O)C(C)(C)NC(=O)[C@@H](N)Cc1ccc(O)cc1)[C@@H](C)O)[C@@H](C)O)C(C)C)[C@@H](C)CC)C(=O)N[C@@H](C)C(=O)N[C@@H](CCC(N)=O)C(=O)NC(C)(C)C(=O)N[C@@H](CCCN)C(=O)N[C@@H](Cc1ccccc1)C(=O)N[C@H](C(=O)N[C@@H](CCCCNC(=O)COCCOCCNC(=O)COCCOCCNC(=O)CC[C@H](NC(=O)CCCCCCCCCCCCC(=O)O)C(=O)O)C(=O)N[C@@](C)(Cc1ccc(O)cc1)C(=O)N[C@@H](CC(C)C)C(=O)N[C@H](C(=O)N[C@@H](CCCCNC(=O)COCCOCCNC(=O)COCCOCCNC(=O)CC[C@H](NC(=O)CCCCCCCCCCCCC(=O)O)C(=O)O)C(=O)NCC(=O)NCC(=O)N1CCC[C@H]1C(=O)N[C@@H](CO)C(=O)N[C@@H](CO)C(=O)NCC(=O)N[C@@H](C)C(=O)N1CCC[C@H]1C(=O)N1CCC[C@H]1C(=O)N1CCC[C@H]1C(=O)N[C@@H](CO)C(N)=O)[C@@H](C)CC)[C@@H](C)CC` [Example 317], the EC50 was 2.03 nM on hGIPR (0.1% bovine casein and 1.0% human serum albumin, 37° C., read-out: hGIPR EC50, nM (SEM, n)); 0.0587 nM on hGIPR (setting [1]); 1.34 nM at hGLP-1R (setting [2]); > 9950 nM on hGCGR (0.1% bovine casein and 1.0% human serum albumin, 37° C., geometric mean, read-out: hGCGR EC50, nM (SEM, n)); > 9950 nM on hGCGR (setting [3]). Further, the Emax was 84.4% on hGIPR (HEK293, 0.1% bovine casein and 1.0% human serum albumin, 37° C., percent of maximal response to GIP(1-42)NH2, read-out: hGIPR Emax, % ± SEM); 112% on hGIPR (HEK293, cAMP, 37° C., 0.1% bovine casein, percent of maximal response to GIP(1-42)NH2, arithmetic mean, read-out: hGIPR Emax, % ± SEM); 98.1% on hGLP-1R (HEK293, 0.1% bovine casein and 1.0% human serum albumin, percent of maximal response to GLP-1(7-36)NH2, read-out: hGLP-1R Emax, % ± SEM).

As to `CCCCCCCCCCCC(=O)N[C@@H](CCC(=O)NCCOCCOCC(=O)NCCOCCOCC(=O)NCCCC[C@H](NC(=O)[C@H](CCCN)NC(=O)[C@H](CC(=O)O)NC(=O)[C@H](CC(C)C)NC(=O)[C@](C)(CC(C)C)NC(=O)[C@@H](NC(=O)C(C)(C)NC(=O)[C@H](CCCCNC(=O)COCCOCCNC(=O)COCCOCCNC(=O)CC[C@H](NC(=O)CCCCCCCCCCC)C(=O)O)NC(=O)[C@H](CC(=O)O)NC(=O)[C@H](CO)NC(=O)[C@@H](NC(=O)[C@](C)(Cc1ccccc1F)NC(=O)[C@@H](NC(=O)CNC(=O)[C@H](CCC(=O)O)NC(=O)C(C)(C)NC(=O)[C@@H](N)Cc1ccc(O)cc1)[C@@H](C)O)[C@@H](C)O)[C@@H](C)CC)C(=O)N[C@@H](C)C(=O)N[C@@H](CCC(N)=O)C(=O)NC(C)(C)C(=O)N[C@@H](CCC(=O)O)C(=O)N[C@@](C)(Cc1ccccc1)C(=O)N[C@H](C(=O)N[C@H](CCC(=O)O)C(=O)N[C@@](C)(Cc1ccc(O)cc1)C(=O)N[C@@H](CC(C)C)C(=O)N[C@H](C(=O)N[C@@H](CCC(=O)O)C(=O)NCC(=O)NCC(=O)N1CCC[C@H]1C(=O)N[C@@H](CO)C(=O)N[C@@H](CO)C(=O)NCC(=O)N[C@@H](C)C(=O)N1CCC[C@H]1C(=O)N1CCC[C@H]1C(=O)N1CCC[C@H]1C(=O)N[C@@H](CO)C(N)=O)[C@@H](C)CC)[C@@H](C)CC)C(=O)O` [Example 429], the Emax on hGIPR (HEK293, cAMP, 37° C., 0.1% bovine casein and 1.0% human serum albumin, percent of maximal response to GIP(1-42)NH2, read-out: hGIPR Emax, % ± SEM) is 93.3%; at hGLP-1R (HEK293, cAMP, 0.1% bovine casein, percent of maximal response to GLP-1(7-36)NH2, arithmetic mean, read-out: hGLP-1R Emax, % ± SEM) it was 116%. Besides, the EC50 on hGIPR (setting [1]) is 0.00799 nM; at hGLP-1R (setting [2]) it was 0.116 nM; at hGLP-1R (0.1% bovine casein and 1.0% human serum albumin, geometric mean (SEM, n), read-out: hGLP-1R EC50, nM (SEM, n)) it was 17.3 nM; at hGCGR (setting [3]), > 9950 nM; at hGCGR (cAMP, 37° C., 0.1% bovine casein and 1.0% human serum albumin, geometric mean (SEM, n), read-out: hGCGR EC50, nM (SEM, n)), > 9950 nM.

For the origin of these results see US20230265151A1, “GIP/GLP1 CO-AGONIST COMPOUNDS” (priority 2020, published 2023).
